# Test results as given in patent publication US20110294732A1, “ERYTHROPOLETIN COMPLEMENTATION OR REPLACEMENT” (Universite De Strasbourg, priority 2007, published 2011).
# Several values for one entry are separate records, joined by “and”; a condition that tells them apart may be missing. Identical values can stand only once. Entries after “also recorded” stand apart in the source; their conditions may differ.
# How the values were obtained:
# porcine RBCs = assay: P50 shift of porcine RBCs after intravenous injection; format: in vivo, piglet; conditions: intravenous 1 g ITPP/kg body weight
# Protocol: An in vivo experiment was performed on one 8 week-old normal piglet (body weight: 17 kg). The piglet was anesthesized with 5% Isoflurane, 0.7 L/min N2O and 2.0 L/min O2 for 20-30 minutes, when ITPP was injected, or blood was taken from the ear vein, respectively. The compound injected intravenous at a concentration of 27 g ITPP/100 ml water (volume injected: 63 ml, pH 6.5, containing 17 g ITPP=1 g/l kg body weight) was not harmful to the animal, when injected into the piglet's ear vein over at least 10 minutes.
# Intravenous injection of 1 g ITPP/kg body weight caused a significant right shift of the P50-value (up to 20%) in porcine RBCs. An almost saturated ITPP solution, pH 6.7, was injected intravenously into two piglets (both of ca. 18 kg body weight) (27 g ITPP/100 ml=1.5 g/kg body weight) over 20 minutes.
# circulating RBCs = assay: P50 shift of circulating RBCs after ip injection; format: in vivo, C57B1/6 mice; conditions: for P50 Shift %, 2 h, Mean +/- SD / P50 Shift %, 24 h, Mean +/- SD / P50 Shift %, 2 h / P50 Shift %, 24 h: ip; for P50 Shift %, 2 h, Mean +/- SD / P50 Shift %, 24 h, Mean +/- SD: 5 animals; for P50 Shift %, 2 h / P50 Shift %, 24 h: single animal
# Protocol: (§1) Blood from C57B1/6 mice collected 2 hrs and 1 day after injection of 45, 60, 120 and 150 mM solutions of ITPP was measured for P50-shifts as reported. […] No animal died or seemed to suffer from the compound.
# whole blood = assay: In vitro P50 of whole blood after incubation with effector, pig; format: cell-based; conditions: 60 mM
# Protocol: For the in vitro experiments, ITPP was dissolved in deionized water, pH was adjusted to pH 7 and, for incubation with whole blood, the osmolarity of the ITPP solutions was adjusted with glucose to 270-297 mOsM. Mixtures of hemoglobin and ITPP were measured with a HEMOX analyzer (PD Marketing, London) immediately after mixing. Red blood cells were incubated with ITPP for 1 hour at 37° C. Following incubation, the cells were washed 3 times with Bis-Tris-buffer (pH=7.0) and then used for P50 measurement.
# ITPP was tested along with a cholesteroyl derivative (here designated as kf96) (both at 60 mM) as effectors for P50 shifts in whole blood of three species: human, mouse and pig. As usual, pHs for the compound-solutions were adjusted to ca. 7.0, osmolarities for both solutions were determined (325-373 mOsM) prior to treatment with the effectors, and whole blood volumes at 1:1 ratios were incubated.
# [1] = Blood counts of mice after oral ingestion; format: in vivo
# Description: Blood from mice that ingested ITPP or IHP in water (for 4 days) or water only was collected on day 0, 7 and 11, in order to assess any differences in the blood count (and the amount of erythropoietin in the sera) of treated and control mice. […] The amount of blood from the other mice was not sufficient to determine the blood count.
# [2] = Tolerability of ITPP injection in mice; format: in vivo, C57B1/6 mice
# Protocol: as §1
# [3] = Blood counts of piglets after intravenous injection; format: in vivo; conditions: iv 1 g/kg
# Description: Blood from 2 piglets that received ITPP (1 g/kg body weight) was collected before injection, 2 hrs after, and daily over a period of 14 days after injection, in order to assess any differences in the blood counts of treated and non-treated piglets.
# Blood was taken from the heart of the dead animals for determination of blood counts as well as the amount of sodium, potassium and calcium in the sera. All numbers of blood cells (hematocrit, white blood cells etc.) were halved. The amount of potassium and calcium was normal, while sodium was doubled (before injection: 120-140 mmol/L; after injection: 245 mmol/L). Apparently, the large amount of sodium in that form of ITPP (6 Na^+/molecule) caused the death of the animals. It appears that up to 1 g ITPP per kg body weight can be injected intravenously, (if injected slowly) without harmful effects for the animals. […] A second piglet was also injected with ITPP at the 1 g/kg concentration, after 2 piglets had died after iv injection of 1.2 g ITPP (or even more) per kg body weight. […] Starting with day 3 after injection of the allosteric effector, the number of reticulocytes increased by about 3% for a period of 14 days.
smiles,measurement,setting,value
"O=P1(O)OC2C3OP(=O)(O)OP(=O)(O)OC3C3OP(=O)(O)OP(=O)(O)OC3C2OP(=O)(O)O1 (stereo not drawn) [ITPP, inositol-tripyrophosphate]",right shift of the P50-value,porcine RBCs,up to 20%
same,time at which the P50 shift appears after inoculation,circulating RBCs; ip inoculation,2 h
same,"P50 Shift %, 2 h, Mean +/- SD",circulating RBCs; 45 mM,11.8 +/− 1.16%
same,"P50 Shift %, 24 h, Mean +/- SD",circulating RBCs; 45 mM,13.6 +/− 1.02%
same,"P50 Shift %, 2 h",circulating RBCs; 45 mM,10% and 13% (2×) and 12% and 11%
same,"P50 Shift %, 24 h",circulating RBCs; 45 mM,8%
same,"P50 Shift %, 2 h, Mean +/- SD",circulating RBCs; 60 mM,16.9 +/− 3.48%
same,"P50 Shift %, 24 h, Mean +/- SD",circulating RBCs; 60 mM,17.2 +/− 2.1%
same,"P50 Shift %, 2 h",circulating RBCs; 60 mM,12% and 14% and 17% and 21% and 20.5%
same,"P50 Shift %, 24 h",circulating RBCs; 60 mM,14% and 16% and 17% and 20% and 19%
same,"P50 Shift %, 2 h, Mean +/- SD",circulating RBCs; 120 mM,26.0 +/− 2.28%
same,"P50 Shift %, 24 h, Mean +/- SD",circulating RBCs; 120 mM,24.8 +/− 2.7%
same,"P50 Shift %, 2 h",circulating RBCs; 120 mM,28% and 29% and 24% and 26% and 23%
same,"P50 Shift %, 24 h",circulating RBCs; 120 mM,28% (2×) and 22% (2×) and 24%
same,"P50 Shift %, 2 h, Mean +/- SD",circulating RBCs; 150 mM,27.0 +/− 1.78%
same,"P50 Shift %, 24 h, Mean +/- SD",circulating RBCs; 150 mM,25.8 +/− 2.78%
same,"P50 Shift %, 2 h",circulating RBCs; 150 mM,26% (2×) and 28% and 30% and 25%
same,"P50 Shift %, 24 h",circulating RBCs; 150 mM,25% and 26% and 31% and 24% and 23%
same,"P50 increase, % (ITPP)",whole blood; pig whole blood,40%
same,P50 mm Hg effector ITPP,"whole blood; pig whole blood, control 32.2",45.2 mm Hg
same,"right shift in the Hb-O2 dissociation curve, strongest shift","whole blood; summary over human, pig and mouse whole blood",up to 40%
same,time until the basal value of the RBC count is restored,"[1]; after ingestion, once ΔP50 becomes 0%",12 days
same,number of RBCs,[1]; oral ingestion for 4 days,reduced significantly
same,number of white blood cells versus other groups,[1]; oral ingestion for 4 days,no major differences
same,RBC × 10^6/mm^3 (day 7),"[1]; single mouse, oral in water for 4 days, day 7, day 0 count 8.9-11.8",6.60 10^6/mm^3 and 5.73 10^6/mm^3 and 6.35 10^6/mm^3 and 5.64 10^6/mm^3 and 5.45 10^6/mm^3 and 8.76 10^6/mm^3 and 7.70 10^6/mm^3 and 6.54 10^6/mm^3 (2×)
same,tolerability,"[2]; ip, concentrations up to 150 mM, no animal died",well tolerated
same,tolerability,"[2]; mice, concentration of 120 mM",well tolerated
same,number of other cells such as white blood cells,[3],No major differences
same,"reticulocytes, increasing numbers","[3]; 5-14 days after injection, day 14",up to 3.0%
same,reticulocyte population after decrease,"[3]; first 3 days (24 to 72 hrs) after injection, from 1.4% / 1.5%",0.5%
same,hematocrit and number of RBCs,[3]; first days after injection,slight decrease; also recorded: decrease in hematocrit was observed
same,pathological changes of the blood counts,[3]; injected slowly,did not show any pathological changes
same,increase of the number of reticulocytes,"[3]; starting with day 3, for a period of 14 days",about 3%
